This note sets out measurements from article PMC8705783, “The Effect of Conjugation with Octaarginine, a Cell-Penetrating Peptide on Antifungal Activity of Imidazoacridinone Derivative” (International Journal of Molecular Sciences, 2021).

Data set [1] relates to C. albicans ATCC 10231. In words: microbe, parasite or virus in culture. The data set is classed as cell-based. Conditions: Candida albicans, ATCC10231; minimal fungicidal concentration that kills 99% of cells; read-out: MFC. The method, then: (§1) To establish the possible mode of action for Compound 1-R8, we have analysed the killing activity and determined minimal fungicidal concentrations (MFCs) (Table 4). Additionally, killing kinetics analysis against pathogenic C. albicans ATCC 10231 was performed (Figure 2).
(§2) Minimum fungicidal concentrations (MFCs) were determined as described previously by spot assay. The MFC was determined as the lowest concentration of the test compound in which no recovery of microorganisms was observed.

The subject of data set [2] is C. glabrata DSM 11226. Description: microbe, parasite or virus in culture. The class given is cell-based. Conditions: Nakaseomyces glabratus, DSM11226; minimal fungicidal concentration that kills 99% of cells; read-out: MFC. On the procedure:
as §1, §2

The test system of data set [3] is C. krusei DSM 6128. In words: microbe, parasite or virus in culture. The class given is cell-based. Conditions: Pichia kudriavzevii, DSM6128; minimal fungicidal concentration that kills 99% of cells; read-out: MFC. On the procedure:
as §1, §2

The test system of data set [4] is C. parapsilosis DSM 5784. Description: microbe, parasite or virus in culture. The class given is cell-based. Conditions: Lodderomyces parapsilosis, DSM5784; minimal fungicidal concentration that kills 99% of cells; read-out: MFC. On the procedure: as §1, §2
The test system of data set [5] is S. cerevisiae ATCC 9763. Description: Minimal fungicidal concentration, spot assay. The data set is classed as cell-based. Conditions: Saccharomyces cerevisiae, ATCC9763; minimal fungicidal concentration that kills 99% of cells; read-out: MFC. On the procedure:
as §1, §2

Data set [6] concerns C. albicans ATCC 10231. The class given is cell-based, Candida albicans. On the procedure:
Killing kinetics analysis was performed as described previously. […] After an appropriate time of incubation, 10 μL was withdrawn and spread on YPG agar plates. The number of colony-forming units (CFUs) was determined after overnight incubation of the plates at 37 °C. The killing kinetics analysis was performed with the GraphPad Prism 8 software (GraphPad Software Inc., San Diego, CA, USA).

Data set [7] concerns human erythrocytes. The data set is classed as cell-based. Conditions: 30 min. On the procedure:
Red blood cell concentrates were kindly provided by the Regional Centre for Blood Donation and Blood Treatment in Gdansk. The haemolytic activity determination was carried out by the serial dilution method according to the procedure described earlier. Human erythrocytes were suspended in a solution of saline to obtain a cell density of suspension 2 × l0^7 per mL. Suitable amounts of solutions of compounds diluted in DMSO were added to the cell suspension in tubes, incubated at 37 °C for 30 min, and then centrifuged (1700× g, 5 min, 4 °C). The concentration of haemoglobin in the supernatant after centrifugation of the erythrocytes suspension was determined by measuring the absorbance at wavelength λ = 540 nm (A540 ^sample). Control experiments with the same amount of DMSO were also performed (A540 ^DMSO). The maximum level of haemolysis was obtained after incubation of the cell suspension in the presence of 0.1% Triton X-100 (positive control, A540 ^0.1%Triton X−100). […] The EH50 values for each compound were calculated with GraphPad Prism 8 software. The EH50 is the interpolated concentration of compound, for which the A540 value is exactly 50% of the A540 value measured for the positive control sample. EH (%) was calculated as follows:EH (%) = ((A540 ^sample − A540 ^DMSO)/(A540 ^0.1%Triton X−100 − A540 ^0.9%NaCl)) × 100

Data set [8] deals with Candida albicans ATCC 10231. Description: microbe, parasite or virus in culture. Conditions: ATCC10231, 24 h, pH 7.
Data set [9] concerns Candida glabrata ATCC 90030. In words: microbe, parasite or virus in culture. Conditions: Nakaseomyces glabratus, ATCC90030, 24 h, pH 7.
Data set [10] relates to Candida krusei ATCC 6258. In words: microbe, parasite or virus in culture. Conditions: Pichia kudriavzevii, ATCC6258, 24 h, pH 7.
Data set [11] concerns Candida parapsilosis ATCC 22019. In words: microbe, parasite or virus in culture. Conditions: Lodderomyces parapsilosis, ATCC22019, 24 h, pH 7.
The subject of data set [12] is Saccharomyces cerevisiae ATCC 9763. Description: microbe, parasite or virus in culture. Conditions: ATCC9763, 24 h, pH 7.

Molecules are shown by their SMILES. In brackets after ≈: the same amount, converted by molar mass.

What is called MFC is the smallest concentration meeting the test's criterion for killing the fungus. In the case of `C[C@@H]1[C@H](O)[C@@H](C)/C=C/C=C/C=C/C=C/C=C/C=C/C=C/[C@H](O[C@@H]2O[C@H](C)[C@@H](O)[C@H](N)[C@@H]2O)C[C@@H]2O[C@](O)(C[C@@H](O)C[C@@H](O)[C@H](O)CC[C@@H](O)C[C@@H](O)CC(=O)O[C@H]1C)C[C@H](O)[C@H]2C(=O)O` [Amphotericin B], the MFC in data set [1], in [2], in [3], in data set [4] and in data set [5] was 2 µg/mL (≈ 2.16 µM) each time. In addition, the “mortality of the microbial population” value in data set [6] is listed as “about 60%”. For the same molecule, the EH50 in data set [7] worked out at 3.46 ± 0.15 µg/mL. For the same molecule, the MIC90 in [8] worked out at 0.5 µg/mL (≈ 0.541 µM); in data set [9], 1 µg/mL (≈ 1.08 µM); in [10] it was 1 µg/mL (≈ 1.08 µM); in data set [11], 1 µg/mL (≈ 1.08 µM); in [12], 0.5 µg/mL (≈ 0.541 µM).
